The results in this text go back to patent US10941162B2, “Heterocyclic compounds and uses thereof” (Infinity Pharmaceuticals, Inc., priority 2014, dated 2021).

One experiment has as its target PI3K α (Homo sapiens (Human), UniProt P42336). The experiment can be described thus: PI3-Kinase in vitro IC50 assay, α isoform. The format is biochemical. The text has this: (§1) A PI3-Kinase HTRF® assay kit (cat No. 33-016) purchased from Millipore Corporation is used to screen compounds provided herein. This assay uses specific, high affinity binding of the GRP1 pleckstrin homology (PH) domain to PIP3, the product of a Class 1A or 1B PI3 Kinase acting on its physiological substrate PIP2. During the detection phase of the assay, a complex is generated between the GST-tagged PH domain and biotinylated short chain PIP3. The biotinylated PIP3 and the GST-tagged PH domain recruited fluorophores (Streptavidin-Allophycocyanin and Europium-labeled anti-GST respectively) to form the fluorescence resonance energy transfer (FRET) architecture, generating a stable time-resolved FRET signal. The FRET complex is disrupted in a competitive manner by non-biotinylated PIP3, a product formed in the PI3 Kinase assay.
(§2) PI3 Kinase α, β, γ or δ activity is assayed using the PI3 Kinase HTRF®, assay kit (catalogue No. 33-016) purchased from Millipore Corporation. Purified recombinant PI3Kα (catalogue No. 14-602-K), PI3Kβ (catalogue No. 14-603-K), PI3Kγ (catalogue No. 14-558-K), and PI3Kδ (catalogue No. 14-604-K) are obtained from Millipore Corporation. Purified recombinant PI3K enzyme is used to catalyze the phosphorylation of phosphatidylinositol 4,5-bisphosphate (PIP2 at 10 μM) to phosphatidylinositol 3,4,5-trisphosphate (PIP3) in the presence of 10 μM ATP. The assay is carried out in 384-well format and detected using a Perkin Elmer EnVision Xcite Multilabel Reader. Emission ratios are converted into percent inhibitions and imported into GraphPad Prism software. The concentration necessary to achieve inhibition of enzyme activity by 50% (IC50) is calculated using concentrations ranging from 20 μM to 0.1 nM (12-point curve), IC50 values are determined using a nonlinear regression model available in GraphPad Prism 5.
(§3) Promega ADP-Glo Max assay kit (Cat. No. V7002) can be utilized to determine IC50 values for α, β, δ and γ isoforms of human Class I PI3 kinases (Millipore). Samples of kinase (20 nM α or δ, 40 nM β or γ isoform) are incubated with compound for 15 minutes at room temperature in reaction buffer (15 mM HEPES pH 7.4, 20 mM NaCl, 1 mM EGTA, 0.02% Tween 20, 10 mM MgCl2, 0.2 mg/mL bovine-γ-globulins) followed by addition of ATP/diC8-PtdInsP mixture to give final concentrations of 3 mM ATP and 500 uM diC8-PtdInsP. Reactions are incubated at room temperature for 2 hours followed by addition of 25 uL of stop solution. After a 40-minute incubation at room temperature, 50 uL of Promega detection mix is added followed by incubation for 1 hour at room temperature. Plates are then read on Envision plate reader in luminescence mode. Data are converted to % inhibition using the following equation below:
(§4) [formula] where S is the sample luminescence, Pos is a positive control without added PI3K, Neg is the negative control without added compound. Data are then plotted as % inhibition vs compound concentration. Data fit to 4 parameter logistic equation to determine IC50 values: […]

Another experiment addresses PI3K γ (Homo sapiens (Human), UniProt P48736). The experiment can be described thus: PI3-Kinase in vitro IC50 assay, γ isoform. In kind it is biochemical. The note with it: for IC50: in vitro; for PI3K δ/PI3K γ IC50 (selectivity): ratio of PI3K δ IC50 to PI3K γ IC50.
Description: as §1, §2, §3, §4

For the next experiment, the target named is p110 δ (Homo sapiens (Human), UniProt O00329). Description: RAJI p110 δ assay (PI3K-δ selective cellular assay, phospho-AKT). The format is cell-based. The settings on record: RAJI cells stimulated with anti-human IgM. The text has this:
A compound's ability in selectively inhibiting PI3K-δ can be assessed using RAJI cells, i.e., B lymphocyte cells derived from lymphoma patients. Briefly, serum-starved RAJI cells are stimulated with anti-human IgM, thereby causing signaling through the B-cell receptors, as described in, for example, He et al., Leukemia Research (2009) 33: 798-802. B-cell receptor signaling is important for the activation, differentiation, and survival of B cells and certain B-cell derived cancers. Reduction of phospho-AKT is indicative of compounds that may inhibit B-cell proliferation and function in certain diseases. By monitoring the reduction of phospho-AKT in stimulated RAJI cells (using for example, phospho-AKT antibodies), a compound's potential efficacy in selectively inhibiting PI3KS can be assessed.

A further experiment deals with PI3K δ (Homo sapiens (Human), UniProt O00329). Description: PI3-Kinase in vitro IC50 assay, δ isoform. In kind it is biochemical.
Description: as §1, §2, §3, §4

In another experiment the target is PI3K β (Homo sapiens, UniProt P42338). Description: PI3-Kinase in vitro IC50 assay, β isoform. The format is biochemical. The text has this: A PI3-Kinase HTRF® assay kit (cat No. 33-016) purchased from Millipore Corporation is used to screen compounds provided herein. This assay uses specific, high affinity binding of the GRP1 pleckstrin homology (PH) domain to PIP3, the product of a Class 1A or 1B PI3 Kinase acting on its physiological substrate PIP2. During the detection phase of the assay, a complex is generated between the GST-tagged PH domain and biotinylated short chain PIP3. The biotinylated PIP3 and the GST-tagged PH domain recruited fluorophores (Streptavidin-Allophycocyanin and Europium-labeled anti-GST respectively) to form the fluorescence resonance energy transfer (FRET) architecture, generating a stable time-resolved FRET signal. The FRET complex is disrupted in a competitive manner by non-biotinylated PIP3, a product formed in the PI3 Kinase assay. PI3 Kinase α, β, γ or δ activity is assayed using the PI3 Kinase HTRF®, assay kit (catalogue No. 33-016) purchased from Millipore Corporation. Purified recombinant PI3Kα (catalogue No. 14-602-K), PI3Kβ (catalogue No. 14-603-K), PI3Kγ (catalogue No. 14-558-K), and PI3Kδ (catalogue No. 14-604-K) are obtained from Millipore Corporation. Purified recombinant PI3K enzyme is used to catalyze the phosphorylation of phosphatidylinositol 4,5-bisphosphate (PIP2 at 10 μM) to phosphatidylinositol 3,4,5-trisphosphate (PIP3) in the presence of 10 μM ATP. The assay is carried out in 384-well format and detected using a Perkin Elmer EnVision Xcite Multilabel Reader. Emission ratios are converted into percent inhibitions and imported into GraphPad Prism software. The concentration necessary to achieve inhibition of enzyme activity by 50% (IC50) is calculated using concentrations ranging from 20 μM to 0.1 nM (12-point curve), IC50 values are determined using a nonlinear regression model available in GraphPad Prism 5. Promega ADP-Glo Max assay kit (Cat. No. V7002) can be utilized to determine IC50 values for α, β, δ and γ isoforms of human Class I PI3 kinases (Millipore). Samples of kinase (20 nM α or δ, 40 nM β or γ isoform) are incubated with compound for 15 minutes at room temperature in reaction buffer (15 mM HEPES pH 7.4, 20 mM NaCl, 1 mM EGTA, 0.02% Tween 20, 10 mM MgCl2, 0.2 mg/mL bovine-γ-globulins) followed by addition of ATP/diC8-PtdInsP mixture to give final concentrations of 3 mM ATP and 500 uM diC8-PtdInsP. Reactions are incubated at room temperature for 2 hours followed by addition of 25 uL of stop solution. After a 40-minute incubation at room temperature, 50 uL of Promega detection mix is added followed by incubation for 1 hour at room temperature. Plates are then read on Envision plate reader in luminescence mode. Data are converted to % inhibition using the following equation below: [formula] where S is the sample luminescence, Pos is a positive control without added PI3K, Neg is the negative control without added compound. Data are then plotted as % inhibition vs compound concentration. Data fit to 4 parameter logistic equation to determine IC50 values: [formula]

The target of another experiment is p110 γ (Mus musculus (Mouse), UniProt Q9JHG7). Description: Raw264.7 p110 γ assay (PI3K-γ selective cellular assay, phospho-AKT). In kind it is cell-based. The note with it: for IC50: RAW264.7 cells stimulated with C5a, phospho-AKT; for RAJI δ/Raw264.7 γ IC50 (selectivity): ratio of RAJI p110 δ IC50 to Raw264.7 p110 γ IC50. The text has this:
A compound's ability in selectively inhibiting PI3K-γ can be assessed using RAW264.7 macrophages. Briefly, serum-starved RAW264.7 cells are stimulated with a known GPCR agonist C5a. See, e.g., Camps et al., Nature Medicine (2005) 11(9):936-943. Cells can be treated with test compounds prior to, simultaneously with, or subsequent to the stimulation by C5a. RAW 264.7 cells respond to the complement component fragment C5a through activation of the C5a receptor, and the C5a receptor activates macrophages and induces cell migration. Test compounds' ability to inhibit C5a-mediated AKT phosphorylation is indicative of selective inhibition of PI3K-γ. Thus, by monitoring the reduction of phospho-AKT in stimulated RAW 264.7 cells (using for example, phospho-AKT antibodies), a compound's potential efficacy in selectively inhibiting PI3Kγ can be assessed.
Certain compounds provided herein were tested in RAW 264.7 cell model using procedures as described above.

Structures are written as SMILES.

PI3K α, sequence (P42336 whole entry, the tested form may be a part, canonical isoform): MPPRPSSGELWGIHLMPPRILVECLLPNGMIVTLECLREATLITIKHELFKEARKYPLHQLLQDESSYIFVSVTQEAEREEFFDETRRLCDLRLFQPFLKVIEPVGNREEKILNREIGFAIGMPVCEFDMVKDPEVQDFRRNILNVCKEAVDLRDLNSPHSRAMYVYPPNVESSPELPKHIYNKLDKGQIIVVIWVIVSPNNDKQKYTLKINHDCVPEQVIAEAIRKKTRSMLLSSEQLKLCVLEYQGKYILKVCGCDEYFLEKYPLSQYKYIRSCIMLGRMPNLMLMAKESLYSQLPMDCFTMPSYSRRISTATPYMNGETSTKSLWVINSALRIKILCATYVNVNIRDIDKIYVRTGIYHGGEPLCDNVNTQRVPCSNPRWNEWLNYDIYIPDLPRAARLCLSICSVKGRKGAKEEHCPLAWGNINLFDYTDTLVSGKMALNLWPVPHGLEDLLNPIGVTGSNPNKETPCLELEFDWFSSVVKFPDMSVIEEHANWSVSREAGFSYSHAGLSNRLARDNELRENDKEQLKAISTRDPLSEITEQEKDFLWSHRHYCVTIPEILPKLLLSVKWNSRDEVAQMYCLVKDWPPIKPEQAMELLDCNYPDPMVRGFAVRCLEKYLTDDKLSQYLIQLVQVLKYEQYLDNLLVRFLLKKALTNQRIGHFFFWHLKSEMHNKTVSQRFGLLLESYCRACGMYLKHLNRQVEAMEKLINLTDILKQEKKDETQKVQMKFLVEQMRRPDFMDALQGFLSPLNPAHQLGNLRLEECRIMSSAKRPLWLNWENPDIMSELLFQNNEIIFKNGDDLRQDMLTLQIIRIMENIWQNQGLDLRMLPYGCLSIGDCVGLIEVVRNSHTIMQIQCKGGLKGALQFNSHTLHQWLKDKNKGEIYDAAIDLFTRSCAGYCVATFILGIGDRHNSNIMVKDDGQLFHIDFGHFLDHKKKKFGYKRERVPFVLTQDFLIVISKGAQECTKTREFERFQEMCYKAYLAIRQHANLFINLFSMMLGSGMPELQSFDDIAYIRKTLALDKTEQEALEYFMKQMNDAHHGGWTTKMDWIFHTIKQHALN
PI3K α, sequence (P27986 whole entry partner, the tested form may be a part, canonical isoform): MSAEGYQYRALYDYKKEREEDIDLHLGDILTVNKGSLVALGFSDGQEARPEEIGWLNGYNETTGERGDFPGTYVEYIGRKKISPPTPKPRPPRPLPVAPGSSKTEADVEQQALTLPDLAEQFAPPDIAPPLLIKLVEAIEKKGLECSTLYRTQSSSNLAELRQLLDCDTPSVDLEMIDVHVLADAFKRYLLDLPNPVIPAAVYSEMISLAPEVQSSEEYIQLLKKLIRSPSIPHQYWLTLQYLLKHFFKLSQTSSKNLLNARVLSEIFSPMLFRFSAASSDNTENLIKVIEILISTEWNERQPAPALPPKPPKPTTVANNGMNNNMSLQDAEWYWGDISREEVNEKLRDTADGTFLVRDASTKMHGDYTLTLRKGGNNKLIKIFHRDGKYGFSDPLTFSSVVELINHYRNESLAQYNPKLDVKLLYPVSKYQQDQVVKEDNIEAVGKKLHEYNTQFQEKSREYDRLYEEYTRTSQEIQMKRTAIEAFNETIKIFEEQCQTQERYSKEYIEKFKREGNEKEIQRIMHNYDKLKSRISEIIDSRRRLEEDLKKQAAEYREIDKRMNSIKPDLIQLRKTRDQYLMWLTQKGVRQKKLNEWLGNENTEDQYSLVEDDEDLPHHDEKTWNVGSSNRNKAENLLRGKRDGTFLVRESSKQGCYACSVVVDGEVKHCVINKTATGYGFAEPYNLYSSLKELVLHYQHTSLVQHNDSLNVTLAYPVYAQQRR
PI3K β, sequence (P42338 whole entry, looked up, the tested form may be a part, canonical isoform): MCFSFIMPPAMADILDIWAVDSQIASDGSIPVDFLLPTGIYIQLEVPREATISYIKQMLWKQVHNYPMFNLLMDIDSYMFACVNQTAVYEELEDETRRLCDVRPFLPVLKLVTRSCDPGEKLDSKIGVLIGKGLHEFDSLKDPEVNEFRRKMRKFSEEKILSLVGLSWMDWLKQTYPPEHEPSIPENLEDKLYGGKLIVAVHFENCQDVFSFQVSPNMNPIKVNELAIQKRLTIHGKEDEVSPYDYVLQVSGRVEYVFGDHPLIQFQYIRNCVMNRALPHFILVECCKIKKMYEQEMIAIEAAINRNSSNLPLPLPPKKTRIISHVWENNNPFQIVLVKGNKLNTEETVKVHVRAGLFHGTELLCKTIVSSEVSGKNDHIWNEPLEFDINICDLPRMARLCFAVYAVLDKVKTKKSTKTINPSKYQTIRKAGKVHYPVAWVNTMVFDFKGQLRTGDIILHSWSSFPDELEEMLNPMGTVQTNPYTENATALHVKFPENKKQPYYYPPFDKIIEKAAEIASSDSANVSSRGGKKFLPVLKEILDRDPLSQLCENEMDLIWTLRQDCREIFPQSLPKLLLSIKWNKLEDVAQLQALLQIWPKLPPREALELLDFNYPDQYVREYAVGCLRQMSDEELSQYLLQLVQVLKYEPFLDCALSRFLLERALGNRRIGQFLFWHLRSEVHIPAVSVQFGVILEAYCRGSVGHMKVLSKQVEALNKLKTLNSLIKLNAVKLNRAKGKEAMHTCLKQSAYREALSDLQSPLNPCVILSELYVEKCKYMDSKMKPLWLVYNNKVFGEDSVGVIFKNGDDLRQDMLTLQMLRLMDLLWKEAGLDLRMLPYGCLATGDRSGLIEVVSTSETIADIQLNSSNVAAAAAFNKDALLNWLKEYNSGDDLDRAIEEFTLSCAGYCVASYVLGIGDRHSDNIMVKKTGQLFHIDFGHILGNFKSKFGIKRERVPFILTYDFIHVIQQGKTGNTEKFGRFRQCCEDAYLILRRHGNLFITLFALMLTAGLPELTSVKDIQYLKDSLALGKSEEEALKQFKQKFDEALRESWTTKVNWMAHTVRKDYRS
p110 γ, sequence (Q9JHG7 whole entry, the tested form may be a part): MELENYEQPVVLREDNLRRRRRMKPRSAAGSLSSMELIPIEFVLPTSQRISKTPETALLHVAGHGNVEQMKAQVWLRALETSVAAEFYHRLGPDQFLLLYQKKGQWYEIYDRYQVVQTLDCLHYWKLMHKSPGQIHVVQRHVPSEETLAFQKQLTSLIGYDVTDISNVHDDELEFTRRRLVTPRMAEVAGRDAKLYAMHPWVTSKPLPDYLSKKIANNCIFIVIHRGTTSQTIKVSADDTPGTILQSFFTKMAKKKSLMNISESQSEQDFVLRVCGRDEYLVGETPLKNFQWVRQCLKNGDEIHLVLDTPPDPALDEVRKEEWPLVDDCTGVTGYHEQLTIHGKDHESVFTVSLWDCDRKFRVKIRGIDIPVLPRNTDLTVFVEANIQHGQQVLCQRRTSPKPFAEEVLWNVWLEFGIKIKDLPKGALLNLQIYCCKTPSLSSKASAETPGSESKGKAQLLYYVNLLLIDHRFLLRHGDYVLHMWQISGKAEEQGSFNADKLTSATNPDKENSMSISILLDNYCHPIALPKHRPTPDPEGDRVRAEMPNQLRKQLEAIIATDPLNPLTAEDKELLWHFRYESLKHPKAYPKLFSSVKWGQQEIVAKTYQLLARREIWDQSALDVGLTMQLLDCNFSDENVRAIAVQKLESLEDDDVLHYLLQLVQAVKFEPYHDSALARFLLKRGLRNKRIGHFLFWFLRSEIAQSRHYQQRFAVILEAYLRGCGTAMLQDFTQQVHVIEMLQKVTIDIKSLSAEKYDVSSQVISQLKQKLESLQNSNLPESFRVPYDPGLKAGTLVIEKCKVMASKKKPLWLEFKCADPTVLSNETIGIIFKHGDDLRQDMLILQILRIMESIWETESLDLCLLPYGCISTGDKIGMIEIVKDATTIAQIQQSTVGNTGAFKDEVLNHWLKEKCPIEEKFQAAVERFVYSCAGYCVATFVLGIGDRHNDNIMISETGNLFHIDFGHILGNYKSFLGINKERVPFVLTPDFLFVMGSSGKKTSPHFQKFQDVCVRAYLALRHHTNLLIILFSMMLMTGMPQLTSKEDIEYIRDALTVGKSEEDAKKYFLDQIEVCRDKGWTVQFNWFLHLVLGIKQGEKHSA
PI3K γ, sequence (P48736 whole entry, canonical isoform): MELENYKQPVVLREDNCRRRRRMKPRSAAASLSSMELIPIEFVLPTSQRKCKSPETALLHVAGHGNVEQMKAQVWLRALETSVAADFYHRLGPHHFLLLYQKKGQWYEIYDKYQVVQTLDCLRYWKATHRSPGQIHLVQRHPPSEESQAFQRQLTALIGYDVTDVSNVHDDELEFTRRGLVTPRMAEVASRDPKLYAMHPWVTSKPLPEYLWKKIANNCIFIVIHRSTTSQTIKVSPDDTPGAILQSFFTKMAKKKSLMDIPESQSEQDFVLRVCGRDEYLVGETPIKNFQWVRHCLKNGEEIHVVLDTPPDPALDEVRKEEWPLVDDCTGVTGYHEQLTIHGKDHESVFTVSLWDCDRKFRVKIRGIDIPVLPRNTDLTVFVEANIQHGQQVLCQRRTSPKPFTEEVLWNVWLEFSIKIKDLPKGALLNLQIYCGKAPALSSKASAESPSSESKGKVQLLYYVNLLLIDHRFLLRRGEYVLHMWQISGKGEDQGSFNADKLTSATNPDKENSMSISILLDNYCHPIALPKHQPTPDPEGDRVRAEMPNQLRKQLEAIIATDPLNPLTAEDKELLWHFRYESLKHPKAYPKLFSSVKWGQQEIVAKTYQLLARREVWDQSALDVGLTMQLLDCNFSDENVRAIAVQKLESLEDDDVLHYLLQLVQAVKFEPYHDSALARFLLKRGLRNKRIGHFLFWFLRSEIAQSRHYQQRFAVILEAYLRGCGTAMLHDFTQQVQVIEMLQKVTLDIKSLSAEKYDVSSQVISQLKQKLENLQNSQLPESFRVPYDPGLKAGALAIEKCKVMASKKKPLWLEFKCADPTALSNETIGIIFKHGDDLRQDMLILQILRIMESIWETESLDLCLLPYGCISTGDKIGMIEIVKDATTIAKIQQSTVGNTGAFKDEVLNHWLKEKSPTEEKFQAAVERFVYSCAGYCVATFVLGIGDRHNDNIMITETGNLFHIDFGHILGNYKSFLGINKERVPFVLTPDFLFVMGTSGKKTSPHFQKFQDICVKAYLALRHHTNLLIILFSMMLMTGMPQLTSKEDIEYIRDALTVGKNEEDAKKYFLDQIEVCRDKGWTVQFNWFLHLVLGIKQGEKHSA

In general, IC50 refers to the concentration at which inhibition is half-maximal. Read a low IC50 as higher potency. With `C[C@@H](NC(=O)c1c(N)nn2cccnc12)c1oc2cccc(C#Cc3cnn(C)c3)c2c(=O)c1-c1ccccc1` [Compound 103R], the IC50 is 5 to 10 µM at PI3K α; more than 5 µM against PI3K γ; 1 to 10 µM against p110 δ; 5 to 10 µM against PI3K δ; 5 to 10 µM at PI3K β; 0.1 to 10 µM against p110 γ. At PI3K γ, the “PI3K δ/PI3K γ IC50 (selectivity)” value was “V (V = 0.1 to 1)”. In addition, on p110 γ, the “RAJI δ/Raw264.7 γ IC50 (selectivity)” value was “X (X = 10 to <50)”.
For `C[C@H](NC(=O)c1c(N)nn2cccnc12)c1oc2cccc(C#Cc3cnn(C)c3)c2c(=O)c1-c1ccccc1` [Compound 103S], the IC50 lay in the range of 5 to 10 µM on PI3K α; 0.1 to 0.5 µM against PI3K γ; 1 to 10 µM at p110 δ; 5 to 10 µM against PI3K δ; 5 to 10 µM on PI3K β; 0.001 to 0.05 µM on p110 γ. Besides, the “PI3K δ/PI3K γ IC50 (selectivity)” value on PI3K γ is “X (X = 10 to <50)”. For the same molecule, the “RAJI δ/Raw264.7 γ IC50 (selectivity)” value at p110 γ was “Y (Y = 50 to <850)”.
`CC(NC(=O)c1c(N)nn2cccnc12)c1oc2cccc(C#Cc3cnn(C)c3)c2c(=O)c1-c1ccccc1` (centres unmarked) [Compound 103]: the half-inhibitory concentration (IC50) on PI3K α was 5 to 10 µM; on PI3K γ, 1 to 5 µM; on p110 δ, 1 to 10 µM; against PI3K δ, 5 to 10 µM; against PI3K β it was 5 to 10 µM; on p110 γ, 0.05 to 0.1 µM. The “PI3K δ/PI3K γ IC50 (selectivity)” value on PI3K γ is recorded as “W (W = >1 to <10)”. Further, on p110 γ, the “RAJI δ/Raw264.7 γ IC50 (selectivity)” value is on record as “X (X = 10 to <50)”.
Take `C[C@@H](NC(=O)c1c(N)nn2cccnc12)c1cc2cccc(C#Cc3cnn(C)c3)c2nc1-c1ccccc1` [Compound 175R]: the IC50 was 5 to 10 µM at PI3K α, more than 5 µM against PI3K γ, 5 to 10 µM against PI3K δ and 5 to 10 µM on PI3K β. For the same molecule, the “PI3K δ/PI3K γ IC50 (selectivity)” value on PI3K γ is reported as “V (V = 0.1 to 1)”.
As for `C[C@H](NC(=O)c1c(N)nn2cccnc12)c1cc2cccc(C#Cc3cnn(C)c3)c2nc1-c1ccccc1` [Compound 175S], the IC50 was 5 to 10 µM on PI3K α; 0.1 to 0.5 µM at PI3K γ; 0.1 to 0.5 µM against p110 δ; 5 to 10 µM on PI3K δ; 5 to 10 µM against PI3K β; 0.001 to 0.05 µM at p110 γ. Besides, the “PI3K δ/PI3K γ IC50 (selectivity)” value at PI3K γ is recorded as “X (X = 10 to <50)”. Moreover, at p110 γ, the “RAJI δ/Raw264.7 γ IC50 (selectivity)” value is “W (W = >1 to <10)”.
As to `C[C@@H](NC(=O)c1c(N)nn2cccnc12)c1nc2cccc(C#Cc3cnn(C)c3)c2cc1-c1ccccc1` [Compound 181R], the IC50 against PI3K α was 5 to 10 µM; on PI3K γ, more than 5 µM; at p110 δ it was 1 to 10 µM; against PI3K δ it was 5 to 10 µM; on PI3K β, 5 to 10 µM; against p110 γ, 0.1 to 10 µM. Besides, at PI3K γ, the “PI3K δ/PI3K γ IC50 (selectivity)” value is on record as “V (V = 0.1 to 1)”. In addition, the “RAJI δ/Raw264.7 γ IC50 (selectivity)” value at p110 γ is listed as “V (V = 0.1 to 1)”.
For the molecule `C[C@H](NC(=O)c1c(N)nn2cccnc12)c1nc2cccc(C#Cc3cnn(C)c3)c2cc1-c1ccccc1` [Compound 181S], the IC50 at PI3K α was 5 to 10 µM; against PI3K γ it was more than 5 µM; on p110 δ, 1 to 10 µM; at PI3K δ, 5 to 10 µM; on PI3K β, 5 to 10 µM; at p110 γ it was 0.1 to 10 µM. At PI3K γ, the “PI3K δ/PI3K γ IC50 (selectivity)” value was “V (V = 0.1 to 1)”. For the same molecule, the “RAJI δ/Raw264.7 γ IC50 (selectivity)” value at p110 γ is on record as “Y (Y = 50 to <850)”.
